Experimental data from PubChem BioAssay AID463074 (Broad Institute, 2010).
Activity calls are given as the source filed them.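 Rule for the calls: active = AC50 no more than tenfold above the top dose tested, or full inhibition at every dose with a flat fit (cut at about 19 µM in these data); inconclusive = flat curve fit with inhibition between 30% and 70%, or poor fit; inactive = AC50 more than tenfold above the top dose tested.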

test system: HMLE_sh_eGFP viability, CellTiter-Glo luminescence, 72 h; assay: cytotoxicity in HMLE control line with eGFP shRNA, dose response, counter-screen for HMLE_sh_ECad selective toxicity project, cell-based, HMLE_sh_eGFP, luminescence (AID 463074);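 note: counterscreen control line to flag general toxicity for the HMLE_sh_ECad screen; potency for loss of viability as luminescence drops below DMSO wells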

| SMILES | AC50 |
| --- | --- |
| CC(C)c1ccc(N2C(=O)NC(=O)/C(=C/C=C/c3ccco3)C2=O)cc1 | 2.29 µM |
| C/C(=N\NC(=S)NC(C)C)c1ccc(C(C)(C)C)cc1 | 10 µM |
| Cc1nn(Cc2ccc(C(=O)Nc3nccs3)cc2)c(C)c1Cl | 0.661 µM |
| CCCc1cc(SCC(=O)Nc2c(C)n(C)n(-c3ccccc3)c2=O)n2c(nc3ccccc32)c1C#N | > 19.5 µM (inactive) |
| CCC1=NN(C(=O)c2cccc(Br)c2)C(O)(c2ccc(Br)cc2)C1 (configuration not stated) | 1.37 µM |
| Brc1ccc(/C=N/Nc2ccccc2)cc1 | 8.16 µM |
| O=C(Nc1nc(-c2cccs2)cs1)c1ccc([N+](=O)[O-])o1 | 3.18 µM |
| CCOc1ccc(NC(=O)Nc2ccc(Cc3ccncc3)cc2)cc1 | 7.84 µM |
| Cc1ccc(-c2cc(C(=O)N3CCN(c4ccc(O)cc4)CC3)c3ccccc3n2)cc1 | 8.38 µM |
| Cc1ccc([N+](=O)[O-])cc1N(CC(=O)Nc1ccc(S(=O)(=O)Nc2cccc(C(F)(F)F)c2)cc1)S(C)(=O)=O | 4.67 µM |
| CC(C)c1cc(-c2cc(-c3ccccc3)on2)nc(NC2CCCC2)n1 | 7.45 µM |
| Cc1[nH]nc2nc(SCC(=O)NC3CCCCC3)n(-c3ccc(Br)cc3)c(=N)c12 | 14.4 µM |
| CCOC(=O)Nc1ccc(Cc2ccncc2)cc1 | > 19.5 µM (inactive) |
| CC(C)(C)c1cc(C(=O)NNc2cccc(Cl)c2)n(Cc2ccccc2)n1 | 2.07 µM |
| COc1ccc(-c2nn(-c3ccccc3)cc2/C=N/N2C(=O)CSC2=S)cc1 | 3.97 µM |
| C=CCc1cccc(CNc2nc3ccccc3n2CCC)c1O | 13.5 µM |
| CN1CCN(S(=O)(=O)c2cccc(C(=O)Nc3cc(C(F)(F)F)ccc3N3CCCCC3)c2)CC1 | 5.34 µM |
| Oc1ccccc1/C=N/NP(=S)(c1ccccc1)c1ccccc1 | 6.98 µM |
| O=C1c2ccccc2NC(c2ccc(-c3cccc(Cl)c3)o2)N1O (configuration not stated) | 4.85 µM |
| COc1cc2nc(Nc3ccc(C)c(Cl)c3)nc(N)c2cc1OC | 6.97 µM |
| CCNC(=O)c1c(NC(=O)c2cc(-c3cc(C)ccc3O)n[nH]2)sc2c1CCCC2 | 4.99 µM |

| SMILES | AC50 |
| --- | --- |
| N#Cc1c(NC(=O)c2ccc(Cn3cc(Br)cn3)o2)sc2c1CCCCC2 | 13.4 µM |
| O=C(Nc1ccc(O)c(-c2nc3ccccc3o2)c1)C1(c2ccc(Br)cc2)CCCC1 | > 19.5 µM (inactive) |
| N#Cc1c([N+](=O)[O-])cc([N+](=O)[O-])cc1S(=O)(=O)Cc1ccccc1 | 3.62 µM |
| CC(C)C[C@H](CO)N(Cc1ccccc1)S(=O)(=O)N(Cc1ccccc1)[C@@H](CO)CC(C)C | 3.49 µM |
| COc1cc(C(=O)N/N=C(\Cc2ncc[nH]2)c2ccccc2)cc(OC)c1OC | 6.39 µM |
| CC(=O)O[C@H]1[C@H]2O[C@]23[C@@H]2CC[C@]4(O)C[C@@H](O)CC[C@]4(C)C2CC[C@]3(C)[C@H]1c1ccc(=O)oc1 (some centres not stated) | < 0.16 µM |
| C/C(N)=C(/C#N)C(=O)COC(=O)c1cc(-c2ccc(C)cc2)nc2ccccc12 | 15 µM |
| CCCCCCSc1cccc(-c2nc3cc(C)ccn3c2NC2CCCCC2)c1 | 9.77 µM |
| Cc1occc1C(=O)Nc1ccc(OCc2ccccc2)cc1 | 6.25 µM |
| CCc1ccc(N(CC(=O)Nc2nc3ccc(C)cc3s2)S(=O)(=O)c2c(C)noc2C)cc1 | 6 µM |
| CCCCNc1c(-c2ccc(SC3CCCCC3)c(OC)c2)nc2ccc(C)cn12 | 3.49 µM |
| Cc1nc(-c2ccccc2)sc1C(=O)/C=C/c1ccc(Cl)cc1 | 7.62 µM |
| Cc1ccc(NC(=S)NC(NC(=O)Cc2cccc3ccccc23)C(Cl)(Cl)Cl)cc1 (configuration not stated) | 3.41 µM |
| CCOC(=O)c1sc(NC(=O)Nc2ccccc2Cl)cc1C | 7.58 µM |
| Cc1ccc(C2(c3noc(CN4CCC(c5ccncc5)CC4)n3)CCCC2)cc1 | 2.32 µM |
| O=C(O)CCn1cc(/C=C/C(=O)c2ccc(Cl)cc2)c(-c2ccc(Br)cc2)n1 | 7.09 µM |
| Cc1cc(/C=C2\SC(=S)N(Cc3ccco3)C2=O)c(C)n1-c1ccccc1 | 2.92 µM |
| CCCCNC(=S)N(C)/N=C/c1ccc2c(c1)OCO2 | 16.3 µM |
| CC(C)(C)c1ccc(O)c(O)c1 | 13.3 µM |
| O=C(/C=C\c1ccccc1)NCC(=O)N/N=C/c1ccc(O)cc1O | 12 µM |
| O=C(CN1CCCc2ccccc21)N/N=C/c1c(O)ccc2ccccc12 | 2.7 µM |
